One compound from US11236122B2, “Triterpene amine derivatives” (DFH THERAPEUTICS, priority 2018, dated 2022) can be followed below.

One data set concerns WT pNL4-3. Briefly: CA-SP1 accumulation assay, WT NL4-3. The conditions noted are these: 100 nM compound, HeLa or 293T cells. The data set is classed as cell-based, HIV-1. In a few lines: (§1)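 HeLa or 293T cells transfected with proviral clone, maturation inhibitors present through transfection and labeling; at 24 h, [^35S]Met/Cys labeling 2-3 h. Virions pelleted by ultracentrifugation, lysed, CA and CA-SP1 resolved by SDS-PAGE and quantified by phosphorimaging.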

Another data set concerns pNL4-3 SP1-V7A. The experiment in a line: CA-SP1 accumulation assay, SP1-V7A derivative. It is filed as cell-based, HIV-1. To be noted: 100 nM compound, HeLa or 293T cells. In a few lines: as §1
Another data set concerns WT pNL4-3 in MT-4 cells. Briefly: Antiviral assay in MT-4 cells (RT readout), WT NL4-3. The data set is classed as cell-based, HIV-1. The conditions noted are these: Human immunodeficiency virus 1, NL43, MT4, 96 h, read-out: Antiviral Assay IC50 (nM) NL4-3. The protocol:
(§2) Cell culture, plasmids and transfections. The MT-4 T-cell line was maintained in RPMI-1640 medium supplemented with 10% (vol/vol) fetal bovine serum (FBS), 2 mM glutamine, 100 U/mL penicillin and 100 μg/mL streptomycin at 37° C. in a humidified 5% CO2 atmosphere. HeLa and 293T cells were maintained in Dulbecco's modified Eagle's medium (DMEM) supplemented with 5% (vol/vol) FBS, 2 mM glutamine, 100 U/mL penicillin and 100 μg/mL streptomycin. Molecular clones used in this study were WT pNL4-3 and the derivative encoding a Val-to-Ala mutation at SP1 residue 7, referred to as SP1-V7A. The MT-4 T-cell line was transfected the DEAE/dextran procedure; HeLa and 293T cells were transfected with linear polyethylenimine (L-PEI) or Lipofectamine 2000 (Invitrogen) as recommended by the supplier.
(§3) Antiviral assays. To produce HIV-1 stocks, 293T cells were transfected with WT pNL4-3 or the SP1-V7A derivative and culture supernatants were collected 24 h post transfection. RT-normalized virus supernatants were used to infect MT-4 cells at room temperature for 30 min. Cells were then cultured in the presence of serial dilutions of compounds. […] The IC50s in primary peripheral blood mononuclear cells (PBMCs) were calculated with a multi-clade panel of HIV-1 isolates by Southern Research Institute (Frederick, Md.). […]

In data set [1] the test system is pNL4-3 SP1-V7A in MT-4 cells. The experiment in a line: Antiviral assay in MT-4 cells (RT readout), SP1-V7A. The data set is classed as cell-based, HIV-1. The conditions noted are these: Human immunodeficiency virus 1, MT4, 96 h, read-out: Antiviral Assay IC50 (nM) SP1 V7A. The procedure: as §2, §3
Data set [2] is described as follows: Cytotoxicity assay CellTiter-Blue, MT-4. It is filed as cell-based. To be noted: human; MT-4 cells, 4 to 8 days; mean ± SEM, three experiments. The procedure: (§4) Cytotoxicity assays. Cytotoxicity was measured with CellTiter-Blue® Cell Viability Assay according to the manufacturer's protocol (Promega). Two cell lines, MT-4 and HeLa, were used in this assay. Cells were incubated with serial dilution of compounds at 37° C. for 4 to 8 days and subjected to CellTiter-Blue Reagent. The fluorescent signal was measured at 560 nm Ex/590 nm Em by a plate reader (TECAN, Infinite® M1000 PRO). The 50% cytotoxic concentrations (CC50s) were defined as compound concentrations at which the fluorescent signals were reduced by 50%/relative to the no-inhibitor (DMSO only) controls using GraphPad Prism 6 software and are reported in Table 1.

Data set [3] in a line: Cytotoxicity assay CellTiter-Blue, HeLa. The data set is classed as cell-based. The conditions noted are these: human; HeLa cells, 4 to 8 days; mean ± SEM, three experiments. The procedure:
as §4
For orientation: The colour change of resazurin is a common sign of viable cells or microbes.

Molecules are shown by their SMILES. Where a name gives a salt, the structure may show the parent alone.

In general, IC50 refers to the point on the concentration scale where inhibition reaches its midpoint. By CC50 is commonly meant the concentration at which the toxic effect on the cells reaches its halfway point. Low values mean greater toxicity to the cells, high ones lower toxicity to the cells. For the compound `C=C(C)[C@@H]1CC[C@]2(CCNC3CCN(CCOC)CC3)CC[C@]3(C)[C@H](CC[C@@H]4[C@@]5(C)CC[C@H](OC(=O)CC(C)(C)CC(=O)O)C(C)(C)[C@@H]5CC[C@]43C)[C@@H]12` [Compound 51g, (3β)-17-[2-[[1-(2-Methoxyethyl)piperadin-4-yl]amino]ethyl]-28-norlup-20(29)-en-3-ol, 3-(5-Hydrogen 3,3-Dimethylpentanedioate), Bis(trifluoroacetate) Salt], the “% CA-SP1 Accumulation 100 nM NL4-3” value in the data set on WT pNL4-3 is 85.0 (2) %. Further, the “% CA-SP1 Accumulation 100 nM SP1 V7A” value with pNL4-3 SP1-V7A is on record as 46.5 (3) %. Moreover, the IC50 in the data set with WT pNL4-3 in MT-4 cells worked out at 2 ± 0.5 nM; in data set [1] it was 19 ± 6 nM. Besides, the CC50 worked out at 406 ± 48 nM in data set [2] and 551 ± 83 nM in data set [3].
